Experimental findings from patent US10233182B2, “Substituted spirocyclic inhibitors of autotaxin” (X-Rx, Inc., priority 2014, dated 2019) are described below.

Molecules are shown by their SMILES. Counter-ions that a name gives are not always drawn. Some results are limits rather than exact numbers.

One may read the IC50 as the point on the concentration scale where inhibition reaches its midpoint.

In this assay the target is Autotaxin (Homo sapiens (Human), UniProt Q13822). The assay can be described thus: Autotaxin LPC Cascade Assay. It is filed as biochemical. As to conditions: Autotaxin 5 nM, LPC 100 μM, choline oxidase/HRP/Ampliflu Red fluorescence read-out, 2% DMSO, RT; read-out: IC50 ATX Activity. In a few lines: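 Choline liberated from LPC by autotaxin during 1 h, after a 10-min RT compound preincubation, was converted through choline oxidase/HRP to a fluorescent Ampliflu Red product.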
Take `COc1ccc(CN2C(=O)N(C)C(=O)C23CCN(C(=O)[C@H](NC(=O)c2cc(C(F)(F)F)ccc2F)C(C)C)CC3)c(F)c1` [Example 108, (R)-2-Fluoro-N-(1-(1-(2-fluoro-4-methoxybenzyl)-3-methyl-2,4-dioxo-1,3,8-triazaspiro[4.5]decan-8-yl)-3-methyl-1-oxobutan-2-yl)-5-(trifluoromethyl)benzamide]: the half-inhibitory concentration (IC50) is less than 500 nM.

Take `CN1C(=O)N(Cc2ccc3nccnc3c2)C2(CCN(C(=O)[C@H](NC(=O)c3cc(C(F)(F)F)ccc3F)C3CC3)CC2)C1=O` [Example 109, (R)—N-(1-Cyclopropyl-2-(3-methyl-2,4-dioxo-1-(quinoxalin-6-ylmethyl)-1,3,8-triazaspiro[4.5]decan-8-yl)-2-oxoethyl)-2-fluoro-5-(trifluoromethyl)benzamide]: the IC50 was less than 500 nM.

On to `CN1C(=O)N(Cc2ccc3nccnc3c2)C2(CCN(C(=O)[C@H](NC(=O)c3cc(C(F)(F)F)ccc3F)C3CCC3)CC2)C1=O` [Example 110, (R)—N-(1-Cyclobutyl-2-(3-methyl-2,4-dioxo-1-(quinoxalin-6-ylmethyl)-1,3,8-triazaspiro[4.5]decan-8-yl)-2-oxoethyl)-2-fluoro-5-(trifluoromethyl)benzamide], for which the concentration for half-maximal inhibition (IC50) was less than 500 nM.

`CC(C)[C@@H](NC(=O)c1cc(C(F)(F)F)ccc1F)C(=O)N1CCC2(CC1)C(=O)N(C)C(=O)N2Cc1ncccn1` [Example 111, (R)-2-Fluoro-N-(3-methyl-1-(3-methyl-2,4-dioxo-1-(pyrimidin-2-ylmethyl)-1,3,8-triazaspiro[4.5]decan-8-yl)-1-oxobutan-2-yl)-5-(trifluoromethyl)benzamide]: the IC50 is not below 1000 nM.

Regarding `CN1C(=O)N(Cc2ccc3nccnc3c2)C2(CCN(C(=O)[C@H](NC(=O)c3cc(C(F)(F)F)ccc3F)C3CCCC3)CC2)C1=O` [Example 112, (R)—N-(1-Cyclopentyl-2-(3-methyl-2,4-dioxo-1-(quinoxalin-6-ylmethyl)-1,3,8-triazaspiro[4.5]decan-8-yl)-2-oxoethyl)-2-fluoro-5-(trifluoromethyl)benzamide], the IC50 was less than 500 nM.

Turning to `CC(C)[C@@H](NC(=O)c1cc(C(F)(F)F)ccc1F)C(=O)N1CCC2(CC1)C(=O)N(C)C(=O)N2Cc1ccnc(C#N)c1` [Example 113], the IC50 is not below 1000 nM.

Regarding `Cc1nc2cc(CN3C(=O)N(C)C(=O)C34CCN(C(=O)[C@H](NC(=O)c3cc(C(F)(F)F)ccc3F)C(C)C)CC4)ccn2n1` [Example 114, (R)-2-Fluoro-N-(3-methyl-1-(3-methyl-1-((2-methyl-[1,2,4]triazolo[1,5-a]pyridin-7-yl)methyl)-2,4-dioxo-1,3,8-triazaspiro[4.5]decan-8-yl)-1-oxobutan-2-yl)-5-(trifluoromethyl)benzamide], the IC50 was not below 1000 nM.

In the case of `CC(C)[C@@H](NC(=O)c1cc(C(F)(F)F)ccc1F)C(=O)N1CCC2(CC1)C(=O)N(C)C(=O)N2Cc1cnn(C)c1` [Example 115, (R)-2-Fluoro-N-(3-methyl-1-(3-methyl-1-((1-methyl-1H-pyrazol-4-yl)methyl)-2,4-dioxo-1,3,8-triazaspiro[4.5]decan-8-yl)-1-oxobutan-2-yl)-5-(trifluoromethyl)benzamide], the IC50 was not below 1000 nM.

In the case of `Cc1nc2cc(CN3C(=O)N(C)C(=O)C34CCN(C(=O)[C@H](NC(=O)c3cc(C(F)(F)F)ccc3F)C(C)C)CC4)ccc2o1` [Example 116, (R)-2-Fluoro-N-(3-methyl-1-(3-methyl-1-((2-methylbenzo[d]oxazol-5-yl)methyl)-2,4-dioxo-1,3,8-triazaspiro[4.5]decan-8-yl)-1-oxobutan-2-yl)-5-(trifluoromethyl)benzamide], the IC50 was less than 500 nM.

For the compound `Cc1csc(CN2C(=O)N(C)C(=O)C23CCN(C(=O)[C@H](NC(=O)c2cc(C(F)(F)F)ccc2F)C(C)C)CC3)n1` [Example 117, (R)-2-Fluoro-N-(3-methyl-1-(3-methyl-1-((4-methylthiazol-2-yl)methyl)-2,4-dioxo-1,3,8-triazaspiro[4.5]decan-8-yl)-1-oxobutan-2-yl)-5-(trifluoromethyl)benzamide], the IC50 was not below 1000 nM.

In the case of `Cc1nc2ccc(CN3C(=O)N(C)C(=O)C34CCN(C(=O)[C@H](NC(=O)c3cc(C(F)(F)F)ccc3F)C(C)C)CC4)cc2o1` [Example 118, (R)-2-Fluoro-N-(3-methyl-1-(3-methyl-1-((2-methylbenzo[d]oxazol-6-yl)methyl)-2,4-dioxo-1,3,8-triazaspiro[4.5]decan-8-yl)-1-oxobutan-2-yl)-5-(trifluoromethyl)benzamide], the IC50 is less than 500 nM.

`COc1ccc(CN2C(=O)N(C)C(=O)C23CCN(C(=O)[C@H](NC(=O)c2cc(C(F)(F)F)ccc2F)C(C)C)CC3)c(Cl)c1` [Example 119, (R)—N-(1-(1-(2-Chloro-4-methoxybenzyl)-3-methyl-2,4-dioxo-1,3,8-triazaspiro[4.5]decan-8-yl)-3-methyl-1-oxobutan-2-yl)-2-fluoro-5-(trifluoromethyl)benzamide]: the IC50 is less than 500 nM.

On to `CC(C)[C@@H](NC(=O)c1cc(C(F)(F)F)ccc1F)C(=O)N1CCC2(CC1)C(=O)N(C)C(=O)N2Cc1ccc(=O)n(C)c1` [Example 120, (R)-2-Fluoro-N-(3-methyl-1-(3-methyl-1-((1-methyl-6-oxo-1,6-dihydropyridin-3-yl)methyl)-2,4-dioxo-1,3,8-triazaspiro[4.5]decan-8-yl)-1-oxobutan-2-yl)-5-(trifluoromethyl)benzamide], for which the IC50 lay in the range of 500 to 1000 nM.

`CC(=O)N1CC(CN2C(=O)N(C)C(=O)C23CCN(C(=O)[C@H](NC(=O)c2cc(C(F)(F)F)ccc2F)C(C)C)CC3)C1` [Example 121, (R)—N-(1-(1-((1-Acetylazetidin-3-yl)methyl)-3-methyl-2,4-dioxo-1,3,8-triazaspiro[4.5]decan-8-yl)-3-methyl-1-oxobutan-2-yl)-2-fluoro-5-(trifluoromethyl)benzamide]: the IC50 was not below 1000 nM.

In the case of `CC(C)[C@@H](NC(=O)c1cc(C(F)(F)F)ccc1F)C(=O)N1CCC2(CC1)C(=O)N(C)C(=O)N2C` [Example 122, (R)—N-(1-(1,3-Dimethyl-2,4-dioxo-1,3,8-triazaspiro[4.5]decan-8-yl)-3-methyl-1-oxobutan-2-yl)-2-fluoro-5-(trifluoromethyl)benzamide], the IC50 is not below 1000 nM.

On to `CCN1C(=O)N(C)C(=O)C12CCN(C(=O)[C@H](NC(=O)c1cc(C(F)(F)F)ccc1F)C(C)C)CC2` [Example 123, (R)—N-(1-(1-Ethyl-3-methyl-2,4-dioxo-1,3,8-triazaspiro[4.5]decan-8-yl)-3-methyl-1-oxobutan-2-yl)-2-fluoro-5-(trifluoromethyl)benzamide], for which the IC50 was not below 1000 nM.

For `CC(C)CCN1C(=O)N(C)C(=O)C12CCN(C(=O)[C@H](NC(=O)c1cc(C(F)(F)F)ccc1F)C(C)C)CC2` [Example 124, (R)-2-Fluoro-N-(1-(1-isopentyl-3-methyl-2,4-dioxo-1,3,8-triazaspiro[4.5]decan-8-yl)-3-methyl-1-oxobutan-2-yl)-5-(trifluoromethyl)benzamide], the IC50 is less than 500 nM.

On to `CC(C)[C@@H](NC(=O)c1cc(C(F)(F)F)ccc1F)C(=O)N1CCC2(CC1)C(=O)N(C)C(=O)N2C1CCCC1` [Example 125, (R)—N-(1-(1-Cyclopentyl-3-methyl-2,4-dioxo-1,3,8-triazaspiro[4.5]decan-8-yl)-3-methyl-1-oxobutan-2-yl)-2-fluoro-5-(trifluoromethyl)benzamide], for which the IC50 was less than 500 nM.

With `CC(C)[C@@H](NC(=O)c1cc(C(F)(F)F)ccc1F)C(=O)N1CCC2(CC1)NC(=O)N(C)C2=O` [Example 126, (R)-2-Fluoro-N-(3-methyl-1-(3-methyl-2,4-dioxo-1,3,8-triazaspiro[4.5]decan-8-yl)-1-oxobutan-2-yl)-5-(trifluoromethyl)benzamide], the IC50 was not below 1000 nM.

`COC(=O)Nc1ccc(N2C(=O)N(C)C(=O)C23CCN(C(=O)[C@H](NC(=O)c2cc(C(F)(F)F)ccc2F)C(C)C)CC3)cc1` [Example 127, (R)-Methyl-4-(8-(2-(2-fluoro-5-(trifluoromethyl)benzamido)-3-methylbutanoyl)-3-methyl-2,4-dioxo-1,3,8-triazaspiro[4.5]decan-1-yl)phenylcarbamate]: the concentration for half-maximal inhibition (IC50) was 500 to 1000 nM.

With `CC(C)[C@@H](NC(=O)c1cc(C(F)(F)F)ccc1F)C(=O)N1CCC2(CC1)C(=O)N(C)C(=O)N2c1ccc(NC(=O)C2CC2)cc1` [Example 128, (R)—N-(1-(1-(4-(Cyclopropanecarboxamido)phenyl)-3-methyl-2,4-dioxo-1,3,8-triazaspiro[4.5]decan-8-yl)-3-methyl-1-oxobutan-2-yl)-2-fluoro-5-(trifluoromethyl)benzamide], the IC50 lay in the range of 500 to 1000 nM.

For the compound `Cc1cccc(C(=O)N[C@H](C(=O)N2CCC3(CC2)C(=O)N(C)CN3c2ccccc2)C2CCOCC2)c1` [Example 130, (S)-3-Methyl-N-(2-(3-methyl-4-oxo-1-phenyl-1,3,8-triazaspiro[4.5]decan-8-yl)-2-oxo-1-(tetrahydro-2H-pyran-4-yl)ethyl)benzamide], the IC50 is not below 1000 nM.

As for `Cc1cccc(C(=O)N[C@@H](C(=O)N2CCC3(CC2)C(=O)N(C)CN3c2ccccc2)C2CCCCC2)n1` [Example 131, (R)—N-(1-Cyclohexyl-2-(3-methyl-4-oxo-1-phenyl-1,3,8-triazaspiro[4.5]decan-8-yl)-2-oxoethyl)-6-methylpicolinamide trifluoroacetic Acid Salt], the IC50 was less than 500 nM.

As to `CCc1ccc(F)c(C(=O)N[C@@H](C(=O)N2CCC3(CC2)C(=O)N(C)CN3c2ccccc2)[C@H](C)OC)c1` [Example 133, 5-Ethyl-2-fluoro-N-((2R,3S)-3-methoxy-1-(3-methyl-4-oxo-1-phenyl-1,3,8-triazaspiro[4.5]decane-8-yl)-1-oxobutan-2-yl)benzamide], the IC50 was less than 500 nM.

For `CO[C@@H](C)[C@@H](NC(=O)c1cccc(C)c1)C(=O)N1CCC2(CC1)C(=O)N(C)CN2c1ccccc1` [Example 134, N-((2R,3S)-3-Methoxy-1-(3-methyl-4-oxo-1-phenyl-1,3,8-triazaspiro[4.5]decan-8-yl)-1-oxobutan-2-yl)-3-methylbenzamide], the IC50 was less than 500 nM.
